According to publication PMC11855827, “High-Throughput Screening of Five Compound Libraries for Anthelmintic Activity and Toxicity Leads to the Discovery of Two Flavonoid Compounds” (International Journal of Molecular Sciences, 2025):
“And” between values parts separate entries of the source, which are not always exact repeats. Identical values can stand only once. Like-named read-outs stand apart in the source and are kept apart here.

Tested on: C. elegans
[1] = Table S2, C. elegans SS assay, 110 μM, averages of 4 data points

| Compound | Percentage of motility inhibition 0 h [1] | Percentage of motility inhibition 24 h [1] | Percentage of motility inhibition 0 h (110 μM) | Percentage of motility inhibition 24 h (110 µM) |
| --- | --- | --- | --- | --- |
| NC[C@H]1O[C@H](O[C@H]2[C@H](O)[C@@H](O[C@H]3O[C@H](CO)[C@@H](O)[C@H](N)[C@H]3O)[C@H](N)C[C@@H]2N)[C@H](O)[C@@H](O)[C@@H]1O.O=S(=O)(O)O [Kanamycin (sulfate)] | 22% | 7% |  |  |
| CC1(C)CC[C@]2(C(=O)O)[C@H](O)C[C@]3(C)C(=CC[C@@H]4[C@@]5(C)C[C@H](O)[C@H](O[C@@H]6O[C@H](CO)[C@@H](O)[C@H](O)[C@H]6O)C(CO)(CO)[C@@H]5CC[C@]43C)[C@@H]2C1 [3-O-Beta-D-Glucopyranosylplatycodigenin] | 0% | 0% |  |  |
| CC(C)=CCC[C@](C)(O[C@@H]1O[C@H](CO)[C@@H](O)[C@H](O)[C@H]1O)[C@H]1CC[C@]2(C)[C@@H]1[C@H](O)C[C@@H]1[C@@]3(C)CC[C@H](O)C(C)(C)[C@@H]3CC[C@]12C [Ginsenoside C-K] | 4% | 22% |  |  |
| Diniconazole | 19% | 5% |  |  |
| C[C@@H]1CC[C@@H]2C(C(=O)O)=CO[C@@H](O[C@@H]3O[C@H](CO)[C@@H](O)[C@H](O)[C@H]3O)[C@H]12 [8-Epideoxyloganic acid] | 2% | 17% |  |  |
| O=C(O)C1=CO[C@@H](O[C@@H]2O[C@H](CO)[C@@H](O)[C@H](O)[C@H]2O)[C@@H]2C(CO)=C[C@H](O)[C@H]12 [Deacetylasperulosidic Acid] | 0% | 8% |  |  |
| COC(=O)[C@@]1(C)CC[C@]2(C(=O)O)CC[C@]3(C)C(=CC[C@@H]4[C@@]5(C)C[C@H](O)[C@H](O[C@@H]6OC[C@@H](O[C@@H]7O[C@H](CO)[C@@H](O)[C@H](O)[C@H]7O)[C@H](O)[C@H]6O)[C@@](C)(CO)[C@@H]5CC[C@]43C)[C@@H]2C1 [Esculentoside A] | 17% | 3% |  |  |
| COc1ccc2c(c1)[nH]c1c(C)nccc12.Cl [Harmine (hydrochloride)] | 22% | 11% |  |  |
| C[C@@H]1O[C@@H](O[C@H]2[C@H](OC(=O)[C@]34CCC(C)(C)C[C@H]3C3=CC[C@@H]5[C@@]6(C)C[C@H](O)[C@H](O[C@@H]7O[C@H](CO)[C@@H](O)[C@H](O)[C@H]7O)C(CO)(CO)[C@@H]6CC[C@@]5(C)[C@]3(C)C[C@H]4O)OC[C@H](O)[C@@H]2O)[C@H](O)[C@H](O)[C@H]1O[C@@H]1OC[C@@H](O)[C@H](O)[C@H]1O [Deapioplatycodin D] | 12% | 0% |  |  |
| CNCC(O)c1ccc(O)cc1.Cl (stereo not shown) [Synephrine (hydrochloride)] | 0% | 4% |  |  |
| CSC(=O)OCC1=C[C@H](O)[C@H]2C(C(=O)O)=CO[C@@H](O[C@@H]3O[C@@H](CO)[C@@H](O)[C@@H](O)[C@H]3O)[C@H]12 [Paederosidic acid] | 0% | 0% |  |  |
| C[N+](C)(C)C[C@H](O)CC(=O)[O-] [L-Carnitine] | 7% | 1% |  |  |
| Cc1c(C)c2c(c(C)c1O)CCC(C)(CCCC(C)CCCC(C)CCCC(C)C)O2 (racemic) [DL-alpha-Tocopherol] | 5% | 9% |  |  |
| O=c1cc(-c2ccc(O)cc2)oc2c(C3O[C@H](CO)[C@@H](O[C@@H]4O[C@H](CO)[C@@H](O)[C@H](O)[C@H]4O)[C@H](O)[C@H]3O)c(O)cc(O)c12 (stereo partly shown) [4”‐O‐Glucosylvitexin] | 0% | 0% |  |  |
| O=C([O-])CCC(=O)[O-].[Na+].[Na+] [Disodium succinate] | 19% | 1% |  |  |
| COc1cc2c(cc1OC)[C@@H]1Cc3ccc(OC)c(OC)c3CN1CC2 [Rotun dine] |  |  | 0% | 4% |
| CC1CCC(C(C)C)C(O)C1 (single isomer, unassigned; (-)) [(-)-Menthol] | 7% and 6% |  |  |  |
| C=C(C(=O)O)[C@@H]1CC[C@@]2(C)CCCC(=C)[C@]2(O)C1 [5α-Hydroxycostic acid] | 13% | 18% |  |  |
| C[C@H](CO[C@@H]1O[C@H](CO)[C@@H](O)[C@H](O)[C@H]1O)[C@H]1CC[C@@]2(CC[C@]3(C)[C@H](CC[C@@H]4[C@@]5(C)CC[C@H](O[C@@H]6O[C@H](CO)[C@@H](O)[C@H](O)[C@H]6O[C@@H]6OC[C@@H](O)[C@H](O)[C@H]6O)[C@@](C)(CO)[C@@H]5CC[C@]43C)[C@H]2O)CO1 [Hosenkoside F] | 12% | 0% |  |  |
| COC1=CC(=O)OC(/C=C/c2ccccc2)C1 (stereo not drawn) [(+)‐Kavain] | 38% | 14% |  |  |

| Compound | Percentage of motility inhibition 0 h [1] | Percentage of motility inhibition 24 h [1] | Percentage of motility inhibition 0 h (110 μM) | Percentage of motility inhibition 24 h (110 µM) |
| --- | --- | --- | --- | --- |
| Clc1ccc(C(Cn2ccnc2)OCc2ccc(Sc3ccccc3)cc2)c(Cl)c1.O=[N+]([O-])O (stereo not shown) [Fenticonazole (Nitrate)] | 45% | 13% |  |  |
| COCc1c(CO)cnc(C)c1O [4'‐O‐Methylpyridoxine] | 26% | 1% |  |  |
| CC[C@@H](CO)NCCN[C@@H](CC)CO.Cl.Cl [Ethambutol (dihydrochloride)] | 26% | 6% |  |  |
| CC=C1[C@H](O[C@@H]2O[C@H](CO)[C@@H](O)[C@H](O)[C@H]2O)OC=C(C(=O)OC)[C@H]1CC(=O)OC[C@H]1O[C@@H](OCCc2ccc(O)cc2)[C@H](O)[C@@H](O)[C@@H]1O (stereo in doubt) [Specneuzhenide] | 3% | 31% |  |  |
| CC(=O)O[C@@H]1C[C@@]23C[C@@]24CC[C@H](O[C@@H]2OC[C@H](O)[C@H](O)[C@H]2O)C(C)(C)[C@@H]4CC[C@H]3[C@]2(C)[C@@H](O)[C@]34O[C@H](C[C@@H](C)[C@@H]3[C@@]12C)[C@@H](C(C)(C)O)O4 [Cimiracemoside D] | 0% | 0% |  |  |
| [N-]=[N+]=NCc1cccc(/C(O)=C/C(=O)C(=O)O)c1 [HIV‐1 integrase inhibitor] | 22% | 10% |  |  |
| O.O.O.O.O=C([O-])CC(O)(CC(=O)[O-])C(=O)[O-].[Li+].[Li+].[Li+] [Lithium citrate (tetrahydrate)] | 13% | 0% |  |  |
| Cc1c(O)c(O)cc2c1CC=C1[C@@]2(C)CC[C@@]2(C)[C@@H]3C[C@](C)(C(=O)O)CC[C@]3(C)CC[C@]12C [Triptohypol C] | 0% | 43% |  |  |
| C=CC(=C)CC/C=C(\C)CCC=C(C)C [(E)-β-Farnesene] | 0% | 11% |  |  |
| CC(=O)[C@H]1CC[C@H]2[C@@H]3CC[C@H]4CC(=O)CC[C@]4(C)[C@H]3CC[C@]12C [5a‐Pregnane‐3,20‐dione] | 2% | 17% |  |  |
| O.O.O=C([O-])CC(O)(CC(=O)[O-])C(=O)[O-].[Na+].[Na+].[Na+] [Sodium citrate (dihydrate)] | 32% | 2% |  |  |
| CC[C@@]1(O)C(=O)OCc2c1cc1n(c2=O)Cc2cc3cc(OC)ccc3nc2-1 [10‐Methoxycamptothecin] | 0% | 0% |  |  |
| COc1ccc(-c2cc(=O)c3c(O)cc(O[C@@H]4O[C@H](CO[C@@H]5O[C@@H](C)[C@H](O)[C@@H](O)[C@H]5O)[C@@H](O)[C@H](O)[C@H]4O)cc3o2)cc1 [Linarin] | 15% | 23% |  |  |
| O=C(O)CO [Glycolic acid] | 5% | 6% |  |  |
| CC1(C)CC[C@]2(C(=O)O)CC[C@]3(C)C(=CC[C@@H]4[C@@]5(C)CC[C@H](O[C@@H]6OC[C@H](O)[C@H](O)[C@H]6O[C@@H]6O[C@H](CO)[C@@H](O)[C@H](O)[C@H]6O)[C@@](C)(CO)[C@@H]5CC[C@]43C)[C@@H]2C1 [Cauloside C] | 0% | 10% |  |  |
| CC1=C[C@H]2[C@@H](CC1)[C@H](C)CC[C@H]2[C@@H](C)C(=O)O [Dihydroartemisinic acid] | 0% | 15% |  |  |
| NC[C@@H]1O[C@H](O[C@H]2[C@@H](O)[C@H](O[C@@H]3[C@@H](O)[C@H](N)C[C@H](N)[C@H]3O[C@H]3O[C@H](CO)[C@@H](O)[C@H](O)[C@H]3N)O[C@@H]2CO)[C@H](N)[C@@H](O)[C@@H]1O.O=S(=O)(O)O [Paromomycin (sulfate)] | 14% | 2% |  |  |
| COc1cc2c(cc1OC)-c1c(C)c3ccc(OC)c(OC)c3c[n+]1CC2.[OH-] [Dehydrocorydaline (hydroxyl)] | 2% | 0% |  |  |
| COc1cc(-c2coc3c([C@@H]4O[C@H](CO)[C@@H](O)[C@H](O)[C@H]4O)c(O)ccc3c2=O)ccc1O [3'‐Methoxypuerarin] | 11% | 51% |  |  |
| CC(=O)OC[C@H]1O[C@@H](O[C@@H]2[C@@H](O)[C@H](O[C@@H]3[C@H](O)C(C)(C)C[C@H]4C5=CC[C@@H]6[C@@]7(C)CC[C@H](O[C@@H]8O[C@H](C(=O)O)[C@@H](O)[C@H](O)[C@H]8O[C@@H]8O[C@H](CO)[C@H](O)[C@H](O)[C@H]8O[C@@H]8O[C@H](CO)[C@@H](O)[C@H](O)[C@H]8O)[C@](C)(CO)[C@@H]7CC[C@@]6(C)[C@]5(C)CC[C@@]34C)OC[C@@H]2O)[C@H](OC(C)=O)[C@@H](OC(C)=O)[C@@H]1OC(C)=O [Soyasaponin Ab] | 21% | 4% |  |  |
